Measured values published in publication PMC8779868, “Uncovering Novel Plasma Membrane Carboxylate Transporters in the Yeast Cyberlindnera jadinii” (Journal of Fungi, 2022).

How the values were obtained:
CjAto5 = biological target: T1, CjAto5 (Williopsis jadinii, UniProt A0A1E4RU05); assay: […]-succinate uptake, initial rates in S. cerevisiae IMX1000; assay type: cell-based; conditions: pH 5.0, 30 °C; labelled compound
T1 construct: gene CYBJADRAFT_178915; full ORF in p416GPD, expressed in S. cerevisiae IMX1000; cloned from DSM 2361 DNA
T1 sequence (A0A1E4RU05 1-272): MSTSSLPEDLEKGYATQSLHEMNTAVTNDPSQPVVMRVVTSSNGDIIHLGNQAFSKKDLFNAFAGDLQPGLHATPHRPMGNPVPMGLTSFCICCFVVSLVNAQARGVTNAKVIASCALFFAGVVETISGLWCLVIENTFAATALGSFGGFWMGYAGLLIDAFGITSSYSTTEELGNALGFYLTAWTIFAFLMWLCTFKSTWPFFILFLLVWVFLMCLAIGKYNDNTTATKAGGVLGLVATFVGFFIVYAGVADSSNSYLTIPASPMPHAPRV

CjAto2 = biological target: T2, CjAto2 (Williopsis jadinii, UniProt A0A1E4S9G0); assay: as above; assay type: cell-based; conditions: pH 5.0, 30 °C; labelled compound
T2 construct: gene CYBJADRAFT_7539; full ORF in p416GPD, expressed in S. cerevisiae IMX1000; cloned from DSM 2361 DNA
T2 sequence (A0A1E4S9G0 1-262): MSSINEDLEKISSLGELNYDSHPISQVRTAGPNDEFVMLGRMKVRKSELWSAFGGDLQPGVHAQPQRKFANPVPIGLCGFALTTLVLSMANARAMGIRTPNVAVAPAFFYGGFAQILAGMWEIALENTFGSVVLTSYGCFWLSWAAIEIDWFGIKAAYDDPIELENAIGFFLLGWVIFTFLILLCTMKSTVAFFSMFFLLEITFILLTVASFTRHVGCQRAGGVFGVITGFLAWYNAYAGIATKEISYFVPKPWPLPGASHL

Km (CjAto5): 450 ± 90 µM | Km (CjAto2): 3380 ± 820 µM
Structure (SMILES): O=C(O)CCC(=O)O [succinic acid]
